Experimental data taken from article PMC7918612, “Novel Inhibitors of Nicotinamide-N-Methyltransferase for the Treatment of Metabolic Disorders” (Molecules, 2021).
Numbering of substitutions follows the chain as printed.

How the values were obtained:
mouse NNMT = molecular target: T1, mouse NNMT (Mus musculus, UniProt O55239); assay: Fluorescence-based NNMT enzymatic assay (mouse enzyme); assay type: biochemical; details: read-out: mNNMT IC50
T1 sequence (O55239 1-264): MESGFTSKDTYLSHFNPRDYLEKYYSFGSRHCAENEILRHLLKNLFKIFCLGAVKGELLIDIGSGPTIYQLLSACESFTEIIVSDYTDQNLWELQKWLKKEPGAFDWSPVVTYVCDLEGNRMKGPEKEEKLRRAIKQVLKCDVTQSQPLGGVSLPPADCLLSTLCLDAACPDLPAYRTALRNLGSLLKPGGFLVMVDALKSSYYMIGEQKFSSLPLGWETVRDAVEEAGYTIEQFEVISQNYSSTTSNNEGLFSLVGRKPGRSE
Experimental: (§1) Experimental Procedures S2: Fluorescence-based NNMT enzymatic assay
(§2) NNMT activity was measured by fluorescence based assay. The product MNA formed in the reaction reacts with acetophenone in the presence of KOH and formic acid and forms a fluorescent product 2, 7- naphthyridine. The fluorescence intensity measured with excitation at 375nm and emission at 430nm. Inhibitors were screened using human, mouse and monkey NNMT enzymes. Different concentrations of inhibitors were pre-incubated along with 5ng/well of human NNMT enzyme and 3.42ng/well of mouse NNMT enzyme for 30 minutes at room temperature. Reaction was initiated by addition of SAM and nicotinamide mixture (7µM, 20µM, 8µM SAM and 6µM, 20µM, 9µM nicotinamide for human, mouse and monkey NNMT assays respectively) and incubated for 60 minutes at 37°C. The final assay reaction mixture contained a buffer of 100mM Tris Hcl pH 7.5, 0.04% BSA, 2mM Dithiothreitol and 1% DMSO. The reaction was terminated by addition of Ethanol: Acetophenone mix (75% ethanol: 25% Acetophenone) and 5M potassium Hydroxide prepared with 50% Ethanol. The reaction was incubated for 15 minutes followed by addition of 100µl of 60% formic acid and further incubation for 60 minutes at room temperature. A fluorescent product 2, 7- naphthyridine was measured in a Tecan reader with excitation at 375nm and emission at 430nm. The IC50 values were determined by fitting the inhibition curves (percent inhibition versus inhibitor concentration) using a four parametric sigmoidal dose response in graph pad prism. […]

human NNMT [1] = molecular target: T2, human NNMT (Homo sapiens, UniProt P40261, E101A/E103A/K100A); assay: Thermal shift (DSF) measurement of NNMT stabilisation; assay type: binding; details: together with cofactor (reaction product) SAH
T2 construct: His-tag; thrombin protease site; made in house
T2 sequence (P40261 1-264 K100A/E101A/E103A): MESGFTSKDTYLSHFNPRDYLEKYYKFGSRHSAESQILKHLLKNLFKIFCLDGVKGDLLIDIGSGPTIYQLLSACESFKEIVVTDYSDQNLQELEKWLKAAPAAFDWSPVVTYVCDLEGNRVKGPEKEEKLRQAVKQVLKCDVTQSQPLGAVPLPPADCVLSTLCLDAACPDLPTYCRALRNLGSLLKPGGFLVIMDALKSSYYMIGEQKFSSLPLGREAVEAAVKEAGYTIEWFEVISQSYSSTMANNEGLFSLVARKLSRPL

human NNMT [2] = molecular target: T3, human NNMT (Homo sapiens, UniProt P40261); assay: Fluorescence-based NNMT enzymatic assay (human enzyme); assay type: biochemical; details: for IC50: read-out: hNNMT IC50
T3 sequence (P40261 1-264): T2 sequence (P40261 1-264 K100A/E101A/E103A) with A100K, A101E, A103E
Experimental: as §1, §2

CYP3A4 = CYP3A4 (Homo sapiens, UniProt P08684); assay: CYP3A4 inhibition; assay type: in vitro ADME
CYP3A4, sequence (P08684 whole entry, species assumed): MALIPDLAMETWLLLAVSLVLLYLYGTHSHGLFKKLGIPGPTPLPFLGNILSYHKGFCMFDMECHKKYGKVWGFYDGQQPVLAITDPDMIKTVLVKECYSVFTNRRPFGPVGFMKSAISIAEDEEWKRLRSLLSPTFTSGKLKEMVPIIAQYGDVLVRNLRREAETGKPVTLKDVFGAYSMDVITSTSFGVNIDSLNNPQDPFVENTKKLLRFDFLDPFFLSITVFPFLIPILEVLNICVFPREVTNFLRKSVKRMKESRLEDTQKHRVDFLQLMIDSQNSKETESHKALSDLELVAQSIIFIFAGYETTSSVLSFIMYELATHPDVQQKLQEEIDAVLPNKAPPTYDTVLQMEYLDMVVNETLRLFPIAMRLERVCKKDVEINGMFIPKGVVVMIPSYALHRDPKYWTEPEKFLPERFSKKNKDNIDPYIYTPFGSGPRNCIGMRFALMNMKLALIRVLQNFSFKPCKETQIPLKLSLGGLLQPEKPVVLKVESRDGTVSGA

[3] = Metabolic stability in liver microsomes (species not specified); assay type: in vitro ADME
Experimental: Experimental Procedures S3: Metabolic stability in human and mouse liver microsomes
These profiling studies were carried out as described in Mullangi R. et. al. Preclinical assessment of
ulixertinib, a novel ERK1/2 inhibitor, ADMET & DMPK, 2017, 212-223;

Row | stabilization in DSF experiments, in words (human NNMT [1]) | SMILES | IC50 (mouse NNMT) [µM] | mode of inhibition (human NNMT [2]; competition with substrates nicotinamide / SAM) | IC50 (human NNMT [2]) [µM] | CYP3A4 inhibition liabilities (CYP3A4) | metabolic stability, in words [3] | hNNMT potency, in words (human NNMT [2])
1 | strong additive stabilization | N=c1sc2cccc3c2n1CCC3 [Compound 2] | 2.3 | competitive inhibitors either of nicotinamide alone | 1.3 |  |  | 
2 |  | CN1Cc2cccc3c2N(CCC3)C1=N [Compound 4] | 0.1 |  | 0.07 | no CYP3A4 inhibition liabilities were detected | in an acceptable range | two-digit nano-molar potency
